Assay results published in paper PMC4724521 (Phytochemistry, 2015).

What was measured:
[1] = test system: K. brevis EH; experiment: Inhibition assay of purified EH with fluorescent substrate 5b; assay type: biochemical, Karenia brevis; conditions: substrate 5b 100 μM, EH 0.1 mg/ml, 2 min preincubation, pH 7.0, 30 °C
[2] = test system: EH activity of K. brevis CFE
[3] = biological target: Rhodococcus erythropolis LEH; conditions: ref Arand et al., 2003; cited from earlier work

In the case of CC1OC1c1ccccc1 (stereo not drawn) [cis-β-methylstyrene oxide], the IC50 [1] is reported as 3.05 mM.

With C[C@H]1O[C@@H]1c1ccccc1 (relative stereo) [trans-β-methylstyrene oxide-, trans-β-methylstyrene oxide] the IC50 [1] was 14.3 mM.

CC1(C)OC1c1ccccc1 (stereo not drawn) [β-dimethylstyrene oxide] gave an IC50 [1] of 6.99 mM.

For CCCC(CCC)C(N)=O [valpromide 8, valpromide], the “inhibition of total EH activity (in words)” value [2] is listed as “only adamantly urea 7 inhibited the total activity” and the Ki [3] is listed as 0.1 mM.
